Results from the NIST ThermoML archive (doi:10.1021/je060271a).
Where “and” joins values, the source holds several entries; their conditions need not be identical. Identical values can stand only once.

Settings: 283.16 K, Liquid, Vibrating tube method

CCCCCC(=O)OCC(COC(=O)CCCCC)(COC(=O)CCCCC)COC(=O)CCCCC [pentaerythritol tetrahexanoate]
Settings	mass density
227.4 kPa	1004.4 kg/m3
235.2 kPa	1004.3 kg/m3
235.3 kPa	1004.3 kg/m3
237.1 kPa	1004.4 kg/m3
361.3 kPa	1004.3 kg/m3
363.1 kPa	1004.3 kg/m3
365.9 kPa	1004.3 kg/m3
403.2 kPa	1004.4 kg/m3
405.8 kPa	1004.3 kg/m3
408.6 kPa	1004.4 kg/m3
410.7 kPa	1004.4 kg/m3
439.2 kPa	1004.4 kg/m3
500.7 kPa	1004.3 kg/m3
504.2 kPa	1004.4 kg/m3
508.2 kPa	1004.5 kg/m3
663.2 kPa	1004.4 kg/m3
669.2 kPa	1004.5 kg/m3
813.4 kPa	1004.5 kg/m3
1597.6 kPa	1005.1 kg/m3
1612.4 kPa	1005 kg/m3
1627.1 kPa	1005.2 kg/m3
1642.8 kPa	1005.2 kg/m3
1657.5 kPa	1005.1 kg/m3
1675.4 kPa	1005.1 kg/m3
1690.5 kPa	1005.2 kg/m3
1705.1 kPa	1005.2 kg/m3
1720 kPa	1005.1 kg/m3
1767.2 kPa	1005.1 kg/m3
1782.2 kPa	1005.2 kg/m3
1800 kPa	1005.2 kg/m3
1833.4 kPa	1005.3 kg/m3
1844.8 kPa	1005.2 kg/m3
2221.4 kPa	1005.5 kg/m3
2237 kPa	1005.5 kg/m3
2251.7 kPa	1005.5 kg/m3
2267.5 kPa	1005.4 kg/m3
2279.3 kPa	1005.5 kg/m3
2540.2 kPa	1005.7 kg/m3
2564.1 kPa	1005.7 kg/m3
2812.8 kPa	1005.7 kg/m3
2855.3 kPa	1005.8 kg/m3
3252.2 kPa	1006 kg/m3
3270.9 kPa	1006.1 kg/m3
3286.9 kPa	1006.1 kg/m3
3302.6 kPa	1006.1 kg/m3
3318.6 kPa	1006.2 kg/m3
3372.5 kPa	1006.1 kg/m3
3388.4 kPa	1006.1 kg/m3
3420.8 kPa	1006.1 kg/m3
3440.8 kPa	1006.1 kg/m3
3456.7 kPa	1006.1 kg/m3
3473.5 kPa	1006.1 kg/m3
3493.4 kPa	1006.3 kg/m3
3510.2 kPa	1006.3 kg/m3
3530.5 kPa	1006.2 kg/m3
3547.3 kPa	1006.3 kg/m3
3564.3 kPa	1006.2 kg/m3
3581.1 kPa	1006.3 kg/m3
3601.7 kPa	1006.3 kg/m3
3619.1 kPa	1006.3 kg/m3
3636 kPa	1006.1 kg/m3
3657.3 kPa	1006.3 kg/m3
3674.7 kPa	1006.2 kg/m3
3692.2 kPa	1006.3 kg/m3
3709.8 kPa	1006.3 kg/m3
3730.8 kPa	1006.4 kg/m3
3748.8 kPa	1006.3 kg/m3
3766.1 kPa	1006.4 kg/m3
3784.2 kPa	1006.4 kg/m3
3805.3 kPa	1006.3 kg/m3
3823 kPa	1006.3 kg/m3
3841.3 kPa	1006.5 kg/m3
3863 kPa	1006.3 kg/m3
3877.2 kPa	1006.4 kg/m3
3895.2 kPa	1006.5 kg/m3
3920.3 kPa	1006.4 kg/m3
3938.5 kPa	1006.5 kg/m3
4764.4 kPa	1006.8 kg/m3
4769.6 kPa	1006.9 kg/m3
4781 kPa	1006.9 kg/m3
4797.5 kPa	1007 kg/m3
5309.2 kPa	1007.3 kg/m3
5315.8 kPa	1007.3 kg/m3
5321.5 kPa	1007.3 kg/m3
5327.9 kPa	1007.2 kg/m3
5334.1 kPa	1007.3 kg/m3
5341.5 kPa	1007.2 kg/m3
5347.3 kPa	1007.4 kg/m3
5354.7 kPa	1007.4 kg/m3
5361.1 kPa	1007.3 kg/m3
5367.3 kPa	1007.2 kg/m3
5373.4 kPa	1007.3 kg/m3
5380.6 kPa	1007.3 kg/m3
5386.9 kPa	1007.3 kg/m3
5392.9 kPa	1007.3 kg/m3
5400.4 kPa	1007.2 kg/m3
5406.9 kPa	1007.2 kg/m3
5413 kPa	1007.3 kg/m3
5419.4 kPa	1007.3 kg/m3
5426.8 kPa	1007.3 kg/m3
5432 kPa	1007.3 kg/m3
5438.4 kPa	1007.3 kg/m3
5446 kPa	1007.4 kg/m3
5521.9 kPa	1007.3 kg/m3
6618.4 kPa	1007.9 kg/m3
6623.1 kPa	1008.1 kg/m3
6626.7 kPa	1008 kg/m3
6630.5 kPa	1008.2 kg/m3
6653 kPa	1008 kg/m3
6657.1 kPa	1008.1 kg/m3
6661.4 kPa	1008 kg/m3
6666.3 kPa	1008 kg/m3
6670.4 kPa	1008 kg/m3
6722 kPa	1008 kg/m3
6726 kPa	1008.1 kg/m3
6730.2 kPa	1008.1 kg/m3
6734.1 kPa	1008.1 kg/m3
6738.3 kPa	1008 kg/m3
6743.3 kPa	1008.1 kg/m3
6747.1 kPa	1007.9 kg/m3
6750.9 kPa	1008 kg/m3
6755.6 kPa	1008 kg/m3
6763.5 kPa	1008.2 kg/m3
6768 kPa	1008 kg/m3
6772.6 kPa	1008 kg/m3
6775.9 kPa	1008.2 kg/m3 and 1008.1 kg/m3
6776.4 kPa	1008.1 kg/m3 and 1008 kg/m3
6783.8 kPa	1008 kg/m3
6784.2 kPa	1008.2 kg/m3
6784.5 kPa	1008 kg/m3
6785.8 kPa	1008.2 kg/m3
8353.5 kPa	1009.1 kg/m3
8367.6 kPa	1008.9 kg/m3
9689.3 kPa	1009.7 kg/m3 and 1009.8 kg/m3
9689.5 kPa	1009.7 kg/m3
9689.6 kPa	1009.7 kg/m3
9689.8 kPa	1009.7 kg/m3
9690.2 kPa	1009.8 kg/m3
9691.7 kPa	1009.7 kg/m3
9694.6 kPa	1009.8 kg/m3
9697.7 kPa	1009.8 kg/m3
9697.9 kPa	1009.8 kg/m3 and 1009.9 kg/m3
9702.1 kPa	1009.8 kg/m3
9711.5 kPa	1009.8 kg/m3
